# Results from US11213506B2, “Combination therapy for the treatment or prevention of tumours” (QBIOTICS PTY LTD, priority 2017, dated 2022).
# Columns and labels:
# A431 cells [1] = experiment: IncuCyte cytotoxicity assay (propidium iodide); format: cell-based, human; details: 500 μM
# Procedure: (§1) A431 (human epidermoid carcinoma), MM649 (human melanoma), B16-OVA (B16-F10 mouse melanoma cell line stably transfected with chicken ovalbumin), MM415 (human melanoma) and FaDu (human hypopharyngeal carcinoma) cells were cultured in RPMI-1640, 10% FCS (complete medium) at 37° C., 5% CO2 in a humidified incubator. All cell lines used in this study were confirmed as mycoplasma negative using MycoAlert (Lonza). STR profiling was also performed to confirm the identity of the human cell lines used.
# (§2) Four cancer cell lines (A431, MM649 (human melanoma), FaDu (HNSCC) and MM415 (human melanoma) were assessed for their response to epoxytigliane treatment. Cells were plated at a density of 10,000 cells per well (100 μl of complete media) into clear bottom black 96-well plates (Corning, #3603). Following 24 h incubation, the media within each well was aspirated and replaced with 50 μl of fresh media containing 1 μg/ml propidium iodide (PI). Stock solutions (20 mg/ml in ethanol) of four epoxytiglianes (Compounds 1, 2, 3 and 4) were diluted to 2× final assay concentration (1 mM) in identical media and inserted into a U-bottom 96 well plate in preparation for transfer. 50 μl of dilution was added to the required wells and the resultant plates inserted into an Essen Biosciences IncuCyte in preparation for imaging. Images were acquired at various time points (30 min, 1 h and at hourly intervals) for a total of 24 h.
# FaDu cells = experiment: IncuCyte cytotoxicity assay (propidium iodide); format: cell-based, human; details: 500 μM
# Procedure: as §1, §2
# MM415 cells = experiment: IncuCyte cytotoxicity assay (propidium iodide); format: cell-based, human; details: 500 μM
# Procedure: as §1, §2
# MM649 cells [2] = experiment: IncuCyte cytotoxicity assay (propidium iodide); format: cell-based, human; details: 500 μM
# Procedure: as §1, §2
# B16-OVA cells [3] = experiment: Lactate dehydrogenase (LDH) release assay; format: cell-based, mouse; details: 300 μM and 500 μM
# Procedure: as §1
# Measuring the release of LDH is a well-recognised assay to assess plasma membrane permeabilisation and detect cell death by necrosis (Chan et al. 2013). Three cell lines (A431, MM649 and B16-OVA) were used in these assays. Cells were plated at a density of 10,000 cells per well into clear 96-well plates (Corning, #3595; 100 μl of complete media) and the resultant plates incubated overnight as previously detailed. The following day, media was aspirated from each well and 50 μl of fresh medium was inserted. Stock solutions of Compound 1 were diluted to 2× final assay concentrations (1 mM and 600 μM) and 50 μl of these dilutions added to the required wells. […] OD490 nm and OD690 nm readings were recorded for each sample using a Hybrid Synergy H4 plate reader. Absorbance readings from drug treated samples were normalized to detergent treated controls to determine the % LDH release per well.
# A431 cells [4] = experiment: HMGB1 release assay (ELISA); format: cell-based, human; details: within 120 minutes
# Procedure: as §1, with “melanoma) and” for “melanoma),”, “ovalbumin)” for “ovalbumin), MM415 (human melanoma) and FaDu (human hypopharyngeal carcinoma) cells”, “incubator. BMDCs were cultured in R10 media (RPMI, 10% FCS, 2 mM glutamine, 50 μM beta-mercaptoethanol, Pen/Strep).” for “incubator.”
# (§3) Cell lines (A431, MM649 and B16-OVA) were plated into T75 cm^2 flasks (Nunc) in 10 ml of complete media and cultured at 37° C., 5% CO2 until they reached 90% confluency. Compounds 1, 2, 3 and 4 were diluted in 5 ml of identical media to a final concentration of 500 and 300 μM and then administered to the cells. Several flasks were prepared such that a kinetic curve of HMGB1 release in response to drug treatment could be established. Ethanol only controls were also generated. At the required timepoint, media was removed from the flask into a 10 ml polypropylene tube that was placed on ice for 5 mins. […] OD450 nm values were determined using a Hybrid Synergy H4 plate reader (BioTek). Absorbance values from drug treated samples were normalized to vehicle treated samples to determine the fold increase in HMGB1 release in response to epoxytigliane treatment.
# MM649 cells [5] = experiment: HMGB1 release assay (ELISA); format: cell-based, human; details: within 120 minutes
# Procedure: as §1, with “melanoma) and” for “melanoma),”, “ovalbumin)” for “ovalbumin), MM415 (human melanoma) and FaDu (human hypopharyngeal carcinoma) cells”, “incubator. BMDCs were cultured in R10 media (RPMI, 10% FCS, 2 mM glutamine, 50 μM beta-mercaptoethanol, Pen/Strep).” for “incubator.”
# as §3
# B16-OVA cells [6] = experiment: Calreticulin externalization assay (flow cytometry); format: cell-based, mouse; details: within 60 minutes of treatment
# Procedure: Calreticulin externalization was determined as previously detailed (Gomez-Cadena et al. 2016). Briefly, cells (A431, MM649, B16-OVA) cultured in complete medium at 37° C., 5% CO2 were detached via trypsinisation, centrifuged at 1,200 rpm and washed ×2 with fresh medium. After an additional round of centrifugation, the resultant cell pellet was resuspended at a concentration of 1×10^6 cells/ml, after which epoxytigliane was added to a final concentration of 500 or 300 μM. Ethanol only controls were also performed. Cell suspensions were incubated at 37° C., 5% CO2 and at the indicated timepoints, 200 μl of sample was removed and incubated with LIVE/DEAD fixable far red stain for 5 mins on ice. Following this, cells were pelleted at 1,200 rpm for 4 mins and washed ×1 with PBS. 500 μl of PBS, 0.25% formaldehyde was then added to each pellet to perform a light fixation without compromising plasma membrane integrity. […]
# Samples were gated by FSC-H v FSC-A first to identify single cells, after which the LIVE/DEAD stain (Ex: 640 nm, Em: 670/14) negative (intact cell) population was analysed for green fluorescence (Ex: 488 nm, Em: 530/30; calreticulin externalization). Mean fluorescence intensity values were subsequently determined and graphed versus time.
# [7] = after 120 minutes, majority of cells
# [8] = differing extents and kinetics of onset
smiles,measurement,setting,value
"C/C=C(\C)C(=O)O[C@@H]1[C@@H](C)[C@@]2(O)[C@H]([C@@H]3C(C)(C)[C@]13OC(=O)[C@@H](C)CC)[C@@H]1O[C@]1(CO)[C@@H](O)[C@]1(O)C(=O)C(C)=C[C@H]12 [Compound 1, 12-tigloyl-13-(2-methylbutanoyl)-6,7-epoxy-4,5,9,12,13,20-hexahydroxy-1-tiglien-3-one]",propidium iodide staining (loss of plasma membrane integrity),A431 cells [1]; [7],strong red staining
same,"cell morphology (cytoplasmic swelling, blistering)",A431 cells [1]; [8],significant cytoplasmic swelling and ‘blistering’
same,propidium iodide staining (loss of plasma membrane integrity),FaDu cells; [7],strong red staining
same,"cell morphology (cytoplasmic swelling, blistering)",FaDu cells; [8],significant cytoplasmic swelling and ‘blistering’
same,propidium iodide staining (loss of plasma membrane integrity),MM415 cells; [7],strong red staining
same,"cell morphology (cytoplasmic swelling, blistering)",MM415 cells; [8],significant cytoplasmic swelling and ‘blistering’
same,propidium iodide staining (loss of plasma membrane integrity),MM649 cells [2]; [7],strong red staining
same,"cell morphology (cytoplasmic swelling, blistering)",MM649 cells [2]; [8],significant cytoplasmic swelling and ‘blistering’
same,LDH release compared to the controls,B16-OVA cells [3],significant release of LDH
same,"increase in HMBG1 release, normalised to vehicle treated cells",A431 cells [4],up to 40%
same,"increase in HMBG1 release, normalised to vehicle treated cells",MM649 cells [5],up to 40%
same,calreticulin externalisation (mean fluorescence intensity),B16-OVA cells [6],significant increases in mean fluorescence intensity
